Experimental data taken from patent publication US5759573A, “Cyclodextrin liposomes encapsulating pharmacologic compounds and methods for their use” (DepoTech Corporation, priority 1995, dated 1998).

Key:
L1210 leukemia [1] = assay: Efficacy of single subcutaneous dose in murine L1210 model (increased life span); format: in vivo, mouse (BDF1); conditions: L1210, single sc dose on Day 1, increased life span
Description: BDF1 and DBA/2J mice were from Simonsen Laboratories, Gilroy, Calif. The L1210 leukemia was maintained by serial intraperitoneal passage in DBA/2J female mice.
(§1) Five animals were in each group except for the control (given 0.9% NaCl alone), where 10 animals were used. […] Median survival time was used to calculate the "increased life span" (ILS) according to the formula: […]
where T is the median survival time of treated groups and C is the median survival time for control groups.
(§2) The LD50 was calculated after probit transformation.

in vivo [2] = conditions: mouse, sc, 10 mg/kg
Protocol: (§4) Subcutaneous (sc) pharmacokinetic studies were done using male BDF1 mice, weighing 20-25 grams. […] At each time point, 3 animals were sacrificed.
(§5) A full thickness of the abdominal wall tissue, including the entire skin and the underlying peritoneal membrane, was then excised from the costal margin to the inguinal area and from one flank to the other. The entire tissue specimen was homogenized after addition of at least 20 ml of distilled water with a Polytron homogenizer. The homogenate was sonicated for 60 seconds at a maximum setting with a Biosonic IV probe sonicator and filtered through a YMT ultrafiltration membrane (Amicon Corp, product #4104). All the samples were kept at -20° C. until assayed by HPLC. The RSTRIP program was used to perform the curve fitting. AUC was determined by linear trapezoidal rule up to the last measured concentration and extrapolated to infinity.

[3] = Intraperitoneal pharmacokinetics in BDF1 mice; conditions: mouse, 10 mg/kg ip
Protocol: (§6) The in vivo studies were done on male BDF1 mice weighing 18-25 g. […] The Emit^R assay is a homogeneous enzyme immunoassay technique based on the competition between drug present in the sample and drug labeled with the enzyme glucose-6-phosphate dehydrogenase for antibody binding sites. The limit of sensitivity was 0.02 μM.
(§7) Five μl of the peritoneal fluid samples were collected into a glass capillary pipette and diluted into 140 μl of 0.9% NaCl solution. […] Fifty μl of methanol was added to the pellet and vortexed to break multivesicular particles. The peritoneal cavities were then washed out thoroughly with 2-3 ml of 0.9% NaCl solution thrice. All samples were kept frozen at -20° C. until assayed by HPLC. Extraction of the samples was not necessary, no internal standard was used and there were no interfering peaks. RSTRIP computer program was used to analyze pharmacokinetic data. The area under the curve was determined by linear trapezoidal rule up to the last measured concentration and extrapolated to infinity.

L1210 leukemia [4] = assay: Efficacy of single intraperitoneal dose in murine L1210 model (increased life span); format: in vivo, mouse (BDF1); conditions: L1210, single ip dose on Day 1, increased life span
Protocol: (§3) There were five mice per group and fifteen mice were used as untreated controls (given 1 ml of 0.9% NaCl solution). The result was expressed as "increased life span".

[5] = estimated from studies in vitro; read-out: minimal cytotoxic concentration; cited from earlier work
in vivo [6] = conditions: mouse, ip, 10 mg/kg
Protocol: as §6, §7

in vivo [7] = conditions: rat
Protocol: Rats were anesthetized with ketamine HCl (90 mg/kg and acetopromazine maleate (2.2 mg/kg, injected intramuscularly) and mounted in a conventional stereotaxic frame. Using a No. 15 blade, a midline cutaneous incision approximately 1 cm in length was made from the occipital crest to just behind the ears. The muscle ligament along the occipital crest at the skull was detached with a scalpel for 4 mm on either side of the midline. Using both the sharp and blunt ends of a periosteal elevator, the muscle from the occipital bone was freed down to the atlanto-occipital membrane. A retractor was placed in the incision to draw the muscle aside and obtain a clear view of the atlanto-occipital membrane. […] The needle was withdrawn, the skin was sutured with 3-0 silk, and the animal was given 10 ml lactated Ringer'solution subcutaneously for hydration.
At appropriate time points after injection, the atlanto-occipital membrane was again exposed under anesthesia and a sample of cerebrospinal fluid ranging from 30 to 60 μl was obtained through a 19-gauge needle. […] The cerebrospinal fluid samples were then kept frozen at -20° C. until analyzed using a high-performanceliquid chromatography (HPLC) system as described below.
After cerebrospinal fluid sampling, the animals were sacrificed with an overdose of ketamine (90 mg/kg) and acetopromazine (20 mg/kg), injected intraperitoneally. Blood samples were obtained via cardiac puncture and thorough exsanguination was performed. […] The calvarium was then exposed and carefully removed with a bone rongeur. The entire content of the cranial compartment was collected by scooping out the exposed brain with a spatula and washing the cranial vault thoroughly with distilled water. The spinal compartment content was then collected separately; the spinal cord was extruded forward into the cranial vault by pushing distilled water rapidly through a 19-gauge needle inserted into the lower lumbar spinal canal at a point 2.5 cm rostral to the origin of the tail. […] The cranial compartment samples were analyzed separately from the spinal canal samples. Both tissue samples were homogenized with water using a Polytron homogenizer.
The homogenized samples of brain or spinal cord were analyzed with HPLC after extraction as described by Alkayal et al. Ther. Drug Monit. 12:191 (1990). Briefly, in a glass centrifuge tube, a 500 μl aliquot of homogenate, 100 μl of theophylline aqueous solution (internal standard, 2.0 mg/ml), 250 μl trichloroacetic acid solution (10% in water), and 250 μl glacial acetic acid were placed and mixed. […] Ethyl acetate organic phase was decanted and evaporated under nitrogen at 60° C. The extracted residue was dissolved in 200 μl of mobile phase and 100 μl of the resulting solution was injected into the HPLC.
The RSTRIP computer program (MicroMath Scientific Software, Salt Lake City, Utah) was used to perform the pharmacokinetics analysis.

[8] = cited from earlier work
[9] = Subcutaneous pharmacokinetics in BDF1 mice; conditions: mouse, 10 mg/kg sc
Protocol: as §4, §5

in vivo [10] = conditions: mouse, sc
Protocol: as §1, §2

[11] = Toxicity and therapeutic index of single intraperitoneal dose; set-up: species or system mouse (BDF1); conditions: in vivo; mouse, single ip dose, probit transformation
Protocol: as §3
LD50 was calculated after probit transformation by PHARM/PCS program (MicroComputer Specialists, Philadelphia, Pa.). […] The therapeutic index (TI) for single IP dosage was calculated by the equation: […]

CN(Cc1cnc2nc(N)nc(N)c2n1)c1ccc(C(=O)N[C@@H](CCC(=O)O)C(=O)O)cc1 [unencapsulated methotrexate, methotrexate]
maximum efficacy (ILS max) (L1210 leukemia [1]): 183%
AUC(0-inf) (in vivo [2]; plasma): 17.3 µM·h
Cmax (in vivo [2]; plasma): 17.4 ± 5.2 µM
Tmax (in vivo [2]; plasma): 15 min
half-life (in vivo [2]; plasma): 31.8 min
half-life (in vivo [2]; skin at injection site): 9.6 min
Peritoneal Amount t1/2 ([3]; total amount for MVL-CD-MTX): 27 min
Peritoneal Conc. t1/2 ([3]; unencapsulated drug or complex, or free methotrexate after MVL-CD-MTX): 32.4 min
maximum efficacy (ILS max) (L1210 leukemia [4]): 100%
MCC [5]: 500 nM
AUC(0-inf) (in vivo [6]; peritoneal fluid): 233 µM·h
Cmax (in vivo [6]; peritoneal fluid): 430 ± 13 µM
half-life (in vivo [6]; peritoneal fluid): 32.4 min
AUC(0-inf) (in vivo [6]; plasma): 11.2 µM·h
half-life (in vivo [6]; plasma): 54 min
Amount t1/2 (total amount of drug within CNS) (in vivo [7]): 43 min
concentration at 4 h (in vivo [7]): 0.11 ± 0.02 µM
half-life (in vivo [7]; Amount t1/2 (total amount of drug within CNS)): 43.2 min
half-life (in vivo [7]; Conc. t1/2 α (initial half-life, CSF)): 34.6 min
half-life (in vivo [7]; Conc. t1/2 β (terminal half-life, CSF)): 432 min
absorption after im or sc administration (in words) ([8]; im or sc): much more predictable and complete
serum concentrations after im or sc versus oral dose (in words) ([8]; im or sc): higher serum concentrations than after an oral dose
absorption rate after oral administration (in words) ([8]; patients, oral): highly variable among patients and appears to be saturable
Amount t1/2 (total amount of methotrexate in skin) ([9]; injection site): 9.6 min
Conc. t1/2 (plasma half-life) ([9]; plasma): 31.8 min
LD50 (in vivo [10]): 2650 mg/kg
LD50 [11]: 2760 mg/kg
